Assay results reported in patent US20200163984A1, “USE OF ISOVALERYL SPIRAMYCIN I, II AND/OR III IN MANUFACTURING MEDICAMENT FOR TREATING AND/OR PREVENTING TUMOR, AND MEDICAMENT” (SHENYANG FUYANG PHARMACEUTICAL TECHNOLOGY CO., LTD., priority 2017, published 2020).
≈ marks a conversion by molar mass, not a printed value.

Columns and labels:
[1] = test system: human promyelocytic leukemia cell HL-60; conditions: HL-60, MTT, 48 h
Protocol: (§1) The purpose of the assay is to evaluate the in vitro cell proliferation inhibition or cytotoxic activity of a tested sample.
(§2) U937 and HL-60 were suspension cells, and cells in a logarithmic growth phase were selected and prepared into a 2×10^5/ml cell suspension by a RPMI 1640 culture medium containing 10% fetal bovine serum. And the cell suspension was inoculated in a 96-well culture plate, and each well was 50 μL and the 96-well culture plate was cultured at 37° C. and 5% CO2 for 24 hours. 50 μL of a culture medium containing different concentrations of the tested sample isovaleryl spiramycin I, isovaleryl spiramycin II, or isovaleryl spiramycin III was added in the experimental group, while a culture medium containing the same volume of solvent was added into the control group. Each group was set up with 3 parallel wells that were cultured at 37° C. and 5% CO2 for 48 h. And 10 μL of freshly prepared medium containing 5 mg/ml MTT was added into each well for continuous incubation for 4 hours at 37° C. The crystals were dissolved in 100 μL of a triple solution (SDS 10 g, 10 M HCl 0.1 mL, isobutanol 5 mL, diluted with distilled water to 100 mL), and incubated at 37° C. for 12 hours. The optical density value was measured at 492 nm with a microplate reader.
(§3) The inhibition rate of the medicament on tumor cell growth is calculated according to the following formula:
(§4) Tumor cell growth inhibition rate (%)=[A492 (negative control)−A492 (dosing group)]/A492 (negative control)×100%
(§5) And the half-inhibitory concentration (IC50) of the sample is determined therefrom.

[2] = test system: human tissue lymphoma cell U937; conditions: U937, MTT, 48 h
Protocol: as §1, §2, §3, §4, §5

[3] = test system: transplanted tumor of human hepatoma cell HepG-2; test: HepG-2 transplanted tumor in nude mice; conditions: for Tumor Volume (mm3) (d 1): d1
[4] = test system: transplanted tumor of human cervical cancer cell HeLa; test: HeLa transplanted tumor in nude mice; conditions: for Tumor Volume (mm3) (d 1): d1
In short: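 Test articles were given orally by gavage for 30 days at 25, 50 or 100 mg/kg to nude mice bearing subcutaneous HeLa xenografts of ≥100 mm^3 (6/group). Endpoints were T/C from relative tumor volume (a×b^2/2, measured every 3 days) and growth inhibition from excised tumor weight vs model group.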

[5] = HepG-2, high dose (100 mg/kg in method) i.g. 30 days
[6] = HepG-2, low dose (25 mg/kg in method) i.g. 30 days
[7] = HepG-2, medium dose (50 mg/kg in method) i.g. 30 days
[8] = HeLa, high dose (100 mg/kg in method) i.g. 30 days
[9] = HeLa, low dose (25 mg/kg in method) i.g. 30 days
[10] = HeLa, medium dose (50 mg/kg in method) i.g. 30 days

## CCC(=O)O[C@@H]1CC(=O)O[C@H](C)C/C=C/C=C/[C@H](O[C@H]2CC[C@H](N(C)C)[C@@H](C)O2)[C@H](C)C[C@H](CC=O)[C@H](O[C@@H]2O[C@H](C)[C@@H](O[C@H]3C[C@@](C)(O)[C@@H](OC(=O)CC(C)C)[C@H](C)O3)[C@H](N(C)C)[C@H]2O)[C@H]1OC [Isovaleryl spiramycin III, isovaleryl spiramycin III]
[1]
  IC50: 21.38 ± 1.75 µg/mL (≈ 21.7 µM)
[2]
  IC50: 15.59 ± 0.08 µg/mL (≈ 15.9 µM)
[3]; [5]
  Relative Tumor Proliferation Rate (T/C): 32.71%
  tumor growth inhibition rate: 63.28%
[3]; [6]
  Relative Tumor Proliferation Rate (T/C): 64.69%
  tumor growth inhibition rate: 38.92%
[3]; HepG-2, low, medium and high doses, P<0.05
  tumor volume and relative tumor volume compared with the model group: significantly lower
[3]; [7]
  Relative Tumor Proliferation Rate (T/C): 43.18%
  tumor growth inhibition rate: 60.54%
[3]; HepG-2 nude mice, 25 mg/kg
  Inhibition Rate (%): 38.92%
  Relative Tumor Proliferation Rate (T/C): 64.69%
  Relative Tumor Volume (RTV): 10.83 ± 2.47
  Tumor Weight: 1.48 ± 0.42 g
  Tumor Volume (mm3) (d 1): 116.67 ± 8.32 mm3
  Tumor Volume (mm3) (d30): 1261.48 ± 283.95 mm3
[3]; HepG-2 nude mice, 50 mg/kg
  Inhibition Rate (%): 60.54%
  Relative Tumor Proliferation Rate (T/C): 43.18%
  Relative Tumor Volume (RTV): 7.23 ± 2.57
  Tumor Weight: 0.96 ± 0.44 g
  Tumor Volume (mm3) (d 1): 119.43 ± 10.86 mm3
  Tumor Volume (mm3) (d30): 852.87 ± 293.29 mm3
[3]; HepG-2 nude mice, 100 mg/kg
  Inhibition Rate (%): 63.28%
  Relative Tumor Proliferation Rate (T/C): 32.71%
  Relative Tumor Volume (RTV): 5.48 ± 3.19
  Tumor Weight: 0.89 ± 0.46 g
  Tumor Volume (mm3) (d 1): 118.26 ± 6.57 mm3
  Tumor Volume (mm3) (d30): 641.99 ± 364.25 mm3
[3]; mouse, in vivo
  mouse weight compared with the model group: no significant changes
[3]; mouse, in vivo, 25 mg/kg
  Body Weight (g) (d1): 21.07 ± 1.24 g
  Body Weight (g) (d30): 23.94 ± 1.67 g
[3]; mouse, in vivo, 50 mg/kg
  Body Weight (g) (d1): 21.25 ± 1.86 g
  Body Weight (g) (d30): 24.36 ± 1.53 g
[3]; mouse, in vivo, 100 mg/kg
  Body Weight (g) (d1): 20.47 ± 2.24 g
  Body Weight (g) (d30): 23.64 ± 1.44 g
[4]; HeLa nude mice, 12.5 mg/kg
  Inhibition Rate (%): 39.33%
  Relative Tumor Proliferation Rate (T/C): 62.92%
  Relative Tumor Volume (RTV): 1.43 ± 1.47
  Tumor Weight: 1.17 ± 0.64 g
  Tumor Volume (mm3) (d 1): 123.36 ± 21.45 mm3
  Tumor Volume (mm3) (d30): 1281.92 ± 242.71 mm3
[4]; HeLa nude mice, 25 mg/kg
  Inhibition Rate (%): 52.41%
  Relative Tumor Proliferation Rate (T/C): 52.05%
  Relative Tumor Volume (RTV): 8.63 ± 3.37
  Tumor Weight: 0.92 ± 0.49 g
  Tumor Volume (mm3) (d 1): 115.2 ± 27.18 mm3
  Tumor Volume (mm3) (d30): 1007.46 ± 481.36 mm3
[4]; HeLa nude mice, 50 mg/kg
  Inhibition Rate (%): 61.68%
  Relative Tumor Proliferation Rate (T/C): 39.33%
  Relative Tumor Volume (RTV): 6.52 ± 0.73
  Tumor Weight: 0.75 ± 0.11 g
  Tumor Volume (mm3) (d 1): 113.35 ± 20.84 mm3
  Tumor Volume (mm3) (d30): 727.16 ± 46.92 mm3
[4]; [8]
  Relative Tumor Proliferation Rate (T/C): 61.68%
  tumor growth inhibition rate: 61.68%
[4]; [9]
  Relative Tumor Proliferation Rate (T/C): 39.33%
  tumor growth inhibition rate: 39.33%
[4]; HeLa, low, medium and high doses, P<0.05
  tumor volume and relative tumor volume compared with the model group: significantly lower
[4]; [10]
  Relative Tumor Proliferation Rate (T/C): 52.41%
  tumor growth inhibition rate: 52.41%
[4]; mouse, in vivo
  mouse weight compared with the model group: no significant changes
[4]; mouse, in vivo, 12.5 mg/kg
  Body Weight (g) (d1): 21.30 ± 0.64 g
  Body Weight (g) (d30): 20.67 ± 0.45 g
[4]; mouse, in vivo, 25 mg/kg
  Body Weight (g) (d1): 20.87 ± 0.78 g
  Body Weight (g) (d30): 20.80 ± 0.55 g
[4]; mouse, in vivo, 50 mg/kg
  Body Weight (g) (d1): 21.09 ± 0.51 g
  Body Weight (g) (d30): 21.10 ± 0.52 g
